Test results reported in patent US20220331237A1, “DEVICE, METHODS AND USES FOR TREATING ANAPHYLAXIS” (1232176 B.C. Ltd., priority 2021, published 2022).
Read-outs that look alike come from different tables or passages of the source.

Legend:
[1] = test system: grade 2 or higher acute allergic reaction
Source text: Institutional Review Board approval was obtained for the study and informed consent was obtained from study participants.

[2] = Commercial actuator, previously reported, cited from earlier work
[3] = Experimental: Briefly, a Next Generation Impactor (Model 170 NGI; Copley) was used to capture dose exiting a regular non-sectioned AIT (used here to minimize assay steps) at an inhalation flowrate of 30 L/min. Interior surfaces of the AIT and the impaction plates within the NGI were coated with silicone grease (Molykote 316; Dow Corning) prior to testing. […] Following actuation, the AIT was washed twice with 10 mL of 0.1 N HCl, while each plate of the NGI was washed once with 5 mL of 0.1 N HCl. Samples were assayed via UV spectroscopy at the absorbance maximum of 279 nm, as discussed above.
Tests were performed using the 0.22 mm actuator orifice with Primatene Mist HFA. Both transverse and coaxial insertion angles were used, with three repeated measures taken at each orientation. Particle size distributions were characterized via calculation of the mass median aerodynamic diameter (MMAD) and geometric standard deviation (GSD) via linear interpolation (e.g., Hinds W C. 2nd ed. Hoboken, N.J.: Wiley; 1999). A validated regional lung deposition model (e.g., Javaheri et al., J Aerosol Sci. 2013, 64:81-93 and Finlay et al., Lung Delivery of Aerosolized Dextran. 2000, 161:91-7) was used to estimate tracheobronchial and alveolar deposition from the measured particle size distributions under a simulated breath with an inhaled volume of 3.0 L, inhalation flowrate of 30 L/min, a pause between inhalation of (i) 0 or (ii) 10 seconds, and exhalation flowrate of 30 L/min.

[4] = 0.22 mm actuator orifice, unaffected by insertion angle
[5] = 0.22 mm actuator, Coaxial, 30 L/min
[6] = 0.22 mm actuator, Transverse, 30 L/min

CNCC(O)c1ccc(O)c(O)c1 (stereo not drawn) [epinephrine, 4-(1-hydroxy-2-(methylamino)ethyl)benzene-1,2-diol]
Tachycardia ([1]; Patient 1, 4 puffs given): Yes | Time to Resolution of Allergic Reaction After Treatment Initiated ([1]; Patient 1, 4 puffs given): 3 min | Tremors ([1]; Patient 1, 4 puffs given): Yes | Tachycardia ([1]; Patient 2, 4 puffs given): Yes | Time to Resolution of Allergic Reaction After Treatment Initiated ([1]; Patient 2, 4 puffs given): within 2 mins | Tremors ([1]; Patient 2, 4 puffs given): Yes | Tachycardia ([1]; Patient 3, 4 puffs given): Yes | Time to Resolution of Allergic Reaction After Treatment Initiated ([1]; Patient 3, 4 puffs given): 0.5 min | Tremors ([1]; Patient 3, 4 puffs given): Yes | Tachycardia ([1]; Patient 4, 2 puffs given): Yes | Time to Resolution of Allergic Reaction After Treatment Initiated ([1]; Patient 4, 2 puffs given): 1 min | Tremors ([1]; Patient 4, 2 puffs given): Yes | Tachycardia ([1]; Patient 5, 6 puffs given): Yes | Time to Resolution of Allergic Reaction After Treatment Initiated ([1]; Patient 5, 6 puffs given): 6 min | Tremors ([1]; Patient 5, 6 puffs given): Yes | Tachycardia ([1]; Patient 6, 9 puffs given): Yes | Tremors ([1]; Patient 6, 9 puffs given): Yes | Time to Resolution of Allergic Reaction After Treatment Initiated ([1]; Patient 6, 9 puffs given, entry runs on: resolved after 5 puffs, but recurred after 5 mins): resolved after 5 | Time to recurrence of allergic reaction after resolution ([1]; Patient 6, 9 puffs given, resolved after 5 puffs): after 5 mins | Tachycardia ([1]; Patient 7, 2 puffs given): Yes | Time to Resolution of Allergic Reaction After Treatment Initiated ([1]; Patient 7, 2 puffs given): 2 min | Tremors ([1]; Patient 7, 2 puffs given): Yes | Tachycardia ([1]; Patient 8, 2 puffs given): Yes | Time to Resolution of Allergic Reaction After Treatment Initiated ([1]; Patient 8, 2 puffs given): 1 min | Tremors ([1]; Patient 8, 2 puffs given): Yes | Tachycardia ([1]; Patient 9, 2 puffs given): Yes | Time to Resolution of Allergic Reaction After Treatment Initiated ([1]; Patient 9, 2 puffs given): 1 min | Tremors ([1]; Patient 9, 2 puffs given): Yes | Tachycardia ([1]; Patient 10, 5 puffs given): Yes | Time to Resolution of Allergic Reaction After Treatment Initiated ([1]; Patient 10, 5 puffs given): 1 min | Tremors ([1]; Patient 10, 5 puffs given): Yes | Tachycardia ([1]; Patient 11, 2 puffs given): Yes | Tremors ([1]; Patient 11, 2 puffs given): Yes | Tachycardia ([1]; Patient 12, 2 puffs given): Yes | Time to Resolution of Allergic Reaction After Treatment Initiated ([1]; Patient 12, 2 puffs given): 1 min | Tremors ([1]; Patient 12, 2 puffs given): Yes | Tachycardia ([1]; Patient 13, 2 puffs given): Yes | Time to Resolution of Allergic Reaction After Treatment Initiated ([1]; Patient 13, 2 puffs given): 1 min | Tremors ([1]; Patient 13, 2 puffs given): Yes | Tachycardia ([1]; Patient 14, 2 puffs given): Yes | Time to Resolution of Allergic Reaction After Treatment Initiated ([1]; Patient 14, 2 puffs given): 1 min | Tremors ([1]; Patient 14, 2 puffs given): Yes | Tachycardia ([1]; Patient 15, 6 puffs given): Yes | Time to Resolution of Allergic Reaction After Treatment Initiated ([1]; Patient 15, 6 puffs given): 4 min | Tremors ([1]; Patient 15, 6 puffs given): Yes | Tachycardia ([1]; Patient 16, 4 puffs given): Yes | Time to Resolution of Allergic Reaction After Treatment Initiated ([1]; Patient 16, 4 puffs given): 1.5 min | Tremors ([1]; Patient 16, 4 puffs given): Yes | Tachycardia ([1]; Patient 17, 3 puffs given): Yes | Time to Resolution of Allergic Reaction After Treatment Initiated ([1]; Patient 17, 3 puffs given): 1.5 min | Tremors ([1]; Patient 17, 3 puffs given): Yes | Tachycardia ([1]; Patient 18, 2 puffs given): Yes | Time to Resolution of Allergic Reaction After Treatment Initiated ([1]; Patient 18, 2 puffs given): within 30 secs | Tremors ([1]; Patient 18, 2 puffs given): Yes | Tachycardia ([1]; Patient 19, 4 + 2 puffs given): Yes | Time to recurrence of allergic reaction after resolution ([1]; Patient 19, 4 + 2 puffs given): after 10 mins, then | Tremors ([1]; Patient 19, 4 + 2 puffs given): Yes | Time to resolution of the recurred allergic reaction ([1]; Patient 19, 4 + 2 puffs given, after recurrence): resolved in 1 min | Time to Resolution of Allergic Reaction After Treatment Initiated ([1]; Patient 19, 4 + 2 puffs given, initial resolution): 1 minute, recurred | Need for treatment with intramuscular epinephrine ([1]; all study participants): No study participants required treatment with intramuscular epinephrine | Resolution of clinical symptoms (laryngopharyngeal and systemic) ([1]; all study participants, Primatene Mist HFA via Bespak BK633 actuator (0.22 mm)): prompt resolution of clinical symptoms | Recurrence of symptoms after initial resolution ([1]; all study participants, further doses of oral inhaled epinephrine given): In two instances symptoms recurred after initial resolution and again resolved promptly | Deposition, NGI Stage 1 ([2]; Coaxial): 2.1 µg | Deposition, NGI Stage 2 ([2]; Coaxial): 2.5 µg | Deposition, NGI Stage 3 ([2]; Coaxial): 11.1 µg | Deposition, NGI Stage 4 ([2]; Coaxial): 72.9 µg | Deposition, NGI Stage 5 ([2]; Coaxial): 99.1 µg | Deposition, NGI Stage 6 ([2]; Coaxial): 34.1 µg | Deposition, NGI Stage 7 ([2]; Coaxial): 6.3 µg | Deposition, NGI Stage 8 ([2]; Coaxial): 0.0 µg | Deposition, Throat ([2]; Coaxial): 136.3 µg | Deposition, Total Recovered ([2]; Coaxial): 364.3 µg | Deposition, NGI Stage 1 ([2]; Transverse): 0.8 µg | Deposition, NGI Stage 2 ([2]; Transverse): 1.1 µg | Deposition, NGI Stage 3 ([2]; Transverse): 6.8 µg | Deposition, NGI Stage 4 ([2]; Transverse): 56.0 µg | Deposition, NGI Stage 5 ([2]; Transverse): 96.8 µg | Deposition, NGI Stage 6 ([2]; Transverse): 37.7 µg | Deposition, NGI Stage 7 ([2]; Transverse): 6.6 µg | Deposition, NGI Stage 8 ([2]; Transverse): 0.0 µg | Deposition, Throat ([2]; Transverse): 212.9 µg | Deposition, Total Recovered ([2]; Transverse): 418.8 µg | GSD [3, 4]: ~1.63 | MMAD [3, 4]: approximately 2 μm | Deposition, NGI Stage 1 [3, 5]: 1.9 µg | Deposition, NGI Stage 2 [3, 5]: 1.9 µg | Deposition, NGI Stage 3 [3, 5]: 8.5 µg | Deposition, NGI Stage 4 [3, 5]: 82.6 µg | Deposition, NGI Stage 5 [3, 5]: 122.2 µg | Deposition, NGI Stage 6 [3, 5]: 42.0 µg | Deposition, NGI Stage 7 [3, 5]: 7.6 µg | Deposition, NGI Stage 8 [3, 5]: 0.0 µg | Deposition, Throat [3, 5]: 78.6 µg | Deposition, Total Recovered [3, 5]: 345.2 µg | MMAD (mass median aerodynamic diameter) [3, 5]: 2.00 μm | Deposition, NGI Stage 1 [3, 6]: 1.5 µg | Deposition, NGI Stage 2 [3, 6]: 1.4 µg | Deposition, NGI Stage 3 [3, 6]: 8.8 µg | Deposition, NGI Stage 4 [3, 6]: 80.8 µg | Deposition, NGI Stage 5 [3, 6]: 121.7 µg | Deposition, NGI Stage 6 [3, 6]: 43.6 µg | Deposition, NGI Stage 7 [3, 6]: 9.5 µg | Deposition, NGI Stage 8 [3, 6]: 0.0 µg | Deposition, Throat [3, 6]: 95.8 µg | Deposition, Total Recovered [3, 6]: 363.0 µg | MMAD (mass median aerodynamic diameter) [3, 6]: 1.98 μm | MMAD (mass median aerodynamic diameter) ([3]; Commercial actuator, Coaxial, calculated here from previously reported deposition): 2.05 μm | MMAD (mass median aerodynamic diameter) ([3]; Commercial actuator, Transverse, calculated here from previously reported deposition): 1.93 μm
